Measured values: ChEMBL document CHEMBL1201862, “PubChem BioAssay data set” (2004)
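Grown in 96-well plates, cells were treated for 48 hours with each compound at five concentrations. Insufficient inhibition: endpoint recorded as highest concentration tested. GI50 marks 50% less growth.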 The source made the active and inactive calls. Cut-off read from the data, not from the text of the source: active = GI50 up to about 1.1 µM and inactive = higher.

Key:
Experiment in all cases: NCI anticancer screen, dose series, 48 h
[1] = test system: 786-0
[2] = test system: A498
[3] = test system: A549
[4] = test system: ACHN
[5] = test system: BT-549
[6] = test system: CAKI-1
[7] = test system: CCRF-CEM
[8] = test system: COLO 205
[9] = test system: DU-145
[10] = test system: EKVX
[11] = test system: HCC 2998
[12] = test system: HCT-116
[13] = test system: HCT-15
[14] = test system: HL-60
[15] = test system: HOP-62
[16] = test system: HOP-92
[17] = test system: HT-29
[18] = test system: Hs-578T
[19] = test system: IGROV-1
[20] = test system: K562
[21] = test system: KM12
[22] = test system: LOX IMVI
[23] = test system: M14
[24] = test system: MCF7
[25] = test system: MDA-MB-231
[26] = test system: MDA-MB-435
[27] = test system: MDA-N
[28] = test system: MOLT-4
[29] = test system: Malme-3M
[30] = test system: NCI-H226
[31] = test system: NCI-H23
[32] = test system: NCI-H460
[33] = test system: NCI-H522
[34] = test system: NCI/ADR-RES
[35] = test system: OVCAR-3
[36] = test system: OVCAR-4
[37] = test system: OVCAR-5
[38] = test system: OVCAR-8
[39] = test system: PC-3
[40] = test system: RPMI-8226
[41] = test system: RXF 393
[42] = test system: SF-268
[43] = test system: SF-295
[44] = test system: SK-MEL-28
[45] = test system: SK-MEL-2
[46] = test system: SK-MEL-5
[47] = test system: SK-OV-3
[48] = test system: SN12C
[49] = test system: SNB-19
[50] = test system: SNB-75
[51] = test system: SR
[52] = test system: SW-620
[53] = test system: T47D
[54] = test system: U-251
[55] = test system: UACC-257
[56] = test system: UACC-62
[57] = test system: UO-31
[58] = test system: SF-539
[59] = test system: TK-10

## O=C1O[C@H]2[C@H](OC(=O)c3cc(O)c(O)c(O)c3)[C@@H](OC(=O)c3cc(O)c(O)c4c3[C@@H]3C1=CC(=O)C(O)(O)C3(O)O4)[C@H](OC(=O)c1cc(O)c(O)c(O)c1)O[C@@H]2COC(=O)c1cc(O)c(O)c(O)c1 (stereo not given in full) [TERCHEBIN]
[1]
  GI50: 60.8 µM (inactive)
[2]
  GI50: > 100 µM (inactive)
[3]
  GI50: 23.9 µM (inactive)
[4]
  GI50: 27.9 µM (inactive)
[5]
  GI50: > 100 µM (inactive)
[6]
  GI50: 36.2 µM (inactive)
[7]
  GI50: 23 µM (inactive)
[8]
  GI50: 39.5 µM (inactive)
[9]
  GI50: 76 µM (inactive)
[10]
  GI50: 39.4 µM (inactive)
[11]
  GI50: 68.2 µM (inactive)
[12]
  GI50: 33 µM (inactive)
[13]
  GI50: 36.6 µM
[14]
  GI50: 26.7 µM (inactive)
[15]
  GI50: 99.3 µM (inactive)
[16]
  GI50: 47.8 µM (inactive)
[17]
  GI50: 37.4 µM (inactive)
[18]
  GI50: > 100 µM (inactive)
[19]
  GI50: 47.8 µM (inactive)
[20]
  GI50: 31.9 µM (inactive)
[21]
  GI50: 14.6 µM (inactive)
[22]
  GI50: 25.1 µM (inactive)
[23]
  GI50: 60.7 µM (inactive)
[24]
  GI50: 74.5 µM (inactive)
[25]
  GI50: 41.9 µM (inactive)
[26]
  GI50: 38.4 µM (inactive)
[27]
  GI50: 53.5 µM (inactive)
[28]
  GI50: 41.9 µM (inactive)
[29]
  GI50: > 100 µM (inactive)
[30]
  GI50: 35.7 µM (inactive)
[31]
  GI50: 42.8 µM (inactive)
[32]
  GI50: 30.1 µM (inactive)
[33]
  GI50: 32.1 µM (inactive)
[34]
  GI50: 53.2 µM (inactive)
[35]
  GI50: 39.5 µM (inactive)
[36]
  GI50: 32.9 µM (inactive)
[37]
  GI50: 65.6 µM (inactive)
[38]
  GI50: 39.3 µM (inactive)
[39]
  GI50: 34.9 µM (inactive)
[40]
  GI50: 51.5 µM (inactive)
[41]
  GI50: > 100 µM (inactive)
[42]
  GI50: 59.3 µM (inactive)
[43]
  GI50: 48.4 µM (inactive)
[44]
  GI50: > 100 µM (inactive)
[45]
  GI50: > 100 µM (inactive)
[46]
  GI50: 75.7 µM (inactive)
[47]
  GI50: 38.3 µM (inactive)
[48]
  GI50: > 100 µM (inactive)
[49]
  GI50: > 100 µM (inactive)
[50]
  GI50: 49.9 µM (inactive)
[51]
  GI50: 44.2 µM (inactive)
[52]
  GI50: 63.5 µM (inactive)
[53]
  GI50: 54.7 µM (inactive)
[54]
  GI50: 54.1 µM (inactive)
[55]
  GI50: > 100 µM (inactive)
[56]
  GI50: 50.6 µM (inactive)
[57]
  GI50: 18.5 µM (inactive)

## CCCN(C(=O)c1c(Cl)nnc(Cl)c1C(=O)c1cc(Cl)nnc1Cl)c1cc(Cl)nnc1Cl
[1]
  GI50: 5.46 µM (inactive)
[2]
  GI50: 15.5 µM (inactive)
[3]
  GI50: 32.1 µM (inactive)
[4]
  GI50: 12.9 µM (inactive)
[5]
  GI50: 9.73 µM (inactive)
[6]
  GI50: 7.23 µM (inactive)
[7]
  GI50: 2.92 µM (inactive)
[8]
  GI50: 5.77 µM (inactive)
[9]
  GI50: 7.91 µM (inactive)
[10]
  GI50: 12.7 µM (inactive)
[11]
  GI50: 16.9 µM (inactive)
[12]
  GI50: 6.87 µM (inactive)
[13]
  GI50: 4.65 µM
[14]
  GI50: 2.48 µM (inactive)
[15]
  GI50: 19 µM (inactive)
[16]
  GI50: 18.4 µM (inactive)
[17]
  GI50: 16.7 µM (inactive)
[18]
  GI50: 3.24 µM (inactive)
[19]
  GI50: 7.52 µM (inactive)
[20]
  GI50: 4.19 µM (inactive)
[21]
  GI50: 11.5 µM (inactive)
[22]
  GI50: 5.47 µM (inactive)
[23]
  GI50: 16.1 µM (inactive)
[24]
  GI50: 4.49 µM (inactive)
[25]
  GI50: 15.7 µM (inactive)
[26]
  GI50: 6.03 µM (inactive)
[27]
  GI50: 6.7 µM (inactive)
[28]
  GI50: 3.36 µM (inactive)
[30]
  GI50: 18.5 µM (inactive)
[31]
  GI50: 5.77 µM (inactive)
[32]
  GI50: 20.9 µM (inactive)
[33]
  GI50: 3.24 µM (inactive)
[34]
  GI50: 6.7 µM (inactive)
[35]
  GI50: 10.9 µM (inactive)
[36]
  GI50: 14.5 µM (inactive)
[37]
  GI50: 21 µM (inactive)
[38]
  GI50: 2.29 µM (inactive)
[39]
  GI50: 6.61 µM (inactive)
[40]
  GI50: 3.65 µM (inactive)
[41]
  GI50: 2.86 µM (inactive)
[42]
  GI50: 4.35 µM (inactive)
[43]
  GI50: 19.9 µM (inactive)
[58]
  GI50: 7.28 µM (inactive)
[44]
  GI50: 12.9 µM (inactive)
[45]
  GI50: 14.4 µM (inactive)
[46]
  GI50: 9.18 µM (inactive)
[47]
  GI50: 33.3 µM (inactive)
[48]
  GI50: 12.4 µM (inactive)
[49]
  GI50: 27.8 µM (inactive)
[50]
  GI50: 15.3 µM (inactive)
[51]
  GI50: 3.08 µM (inactive)
[52]
  GI50: 6.67 µM (inactive)
[53]
  GI50: 4.55 µM (inactive)
[59]
  GI50: 18 µM (inactive)
[54]
  GI50: 16.2 µM (inactive)
[55]
  GI50: 14.2 µM (inactive)
[56]
  GI50: 10.6 µM (inactive)
[57]
  GI50: 17 µM (inactive)
